For data set [1] the following is noted: subcutaneous injection, 0.5 mg/kg, literature value; cited from earlier work.
The conditions of data set [2]: cited from earlier work.
Data set [3] can be described thus: Permeability studies, Franz diffusion cells. Conditions: pig. In kind it is in vitro ADME. On the procedure:
Freshly collected buccal tissues were obtained from pig and mucosa's were isolated carefully. The prepared mucosa membranes with approximate size of 4 cm^2 were mounted between donor and receiver chambers of Franz diffusion cells with available diffusion area of 1.77 cm^2. Test treatments and controls were run in quadruplicate. The receiver compartment, which contained a stirring bar, was filled with 8 mL of KRB buffer, pH 7.4 containing 1% BSA. The Franz cells were placed in a heating/stirring block. The temperature was set at 37° C. in order to maintain the tissue surface temperature at 32° C.; the stirring rate was set at 400 rpm. Two milliliters of formulated compound at different pHs was added to the donor chambers, completely covering the exposed mucosa. All dosing solutions contained 0.1% of sodium dithionite, 0.2% DMSO and 5% propylene glycol or glycerin. The donor compartment was covered with Parafilm to minimize evaporation. An aliquot (˜0.5 mL) was taken from the receiver compartment at 2, 60, 90, and 120 min and replaced with an equal volume of buffer warmed at 37° C. Sampling time points from donor compartment were 0, 60, 90 and 120 min. Samples were diluted with 0.5 mL (1:1) of 10% aq. ascorbic acid. The concentration of each analyte was quantified by LC-MS/MS (Appendix I). The whole study was done in dark with yellow light, and glass vials and syringes were used for sampling. […] Cd final is the concentration of the donor at the end of the incubation period (interval), μM.

Counter-ions that a name gives are not always drawn.

As a reminder, the Cmax is the peak of the concentration-time curve. For orientation: Tmax means the time from dosing to the highest level. Broadly, the Papp is a coefficient for how fast a substance crosses the barrier.

Consider `CN1CCc2cccc3c2[C@H]1Cc1ccc(O)c(O)c1-3` [sc inj, apomorphine hydrochloride], for which, in data set [1], the AUCinf was 17828 ng·min/mL, the Cmax is given as 331 ng/mL and the Tmax is 25 min.

Turning to `CN1CCc2cccc3c2[C@H]1Cc1ccc(O)c(O)c1-3` [apomorphine], the “adverse effects of intranasal administration” value in data set [2] (intranasal administration) was “transient nasal blockage, burning sensation and swollen nose and lips”. For the same compound, in data set [2] (subcutaneous injection), the “side effect of subcutaneous injection” value is recorded as “development of nodules, which often become infected”. Also, the “adverse effects of sublingual tablets” value in data set [2] (sublingual administration of tablets, prolonged use) was “severe stomatitis on prolonged use with buccal mucosal ulceration in half the patients”. For the same compound, the Papp at 120 min in data set [3] (pH 6.4, pH 6.4) is 0.071 ×10⁻⁶ cm/s; in data set [3] (pH 6.8, pH 6.8), 0.054 ×10⁻⁶ cm/s; in data set [3] (pH 7.4, pH 7.4) it was 0.185 ×10⁻⁶ cm/s; in data set [3] (pH 8, pH 8.0), 0.556 ×10⁻⁶ cm/s; in data set [3] (pH 8, pH 8.0 + 1% glycerin monostearate), 2.34 ×10⁻⁶ cm/s; in data set [3] (pH 8, pH 8.0 + 1% magnesium stearate), 0.3 ×10⁻⁶ cm/s. Also, in data set [3] (pH 8, pH 8.0 + 1% tocopherol acetate), the Papp at 120 min was 0.98 ×10⁻⁶ cm/s.

(Values after US9283219B2, “Sublingual films” (Cynapsus Therapeutics, Inc., priority 2010, dated 2016).)
